Source: PubChem BioAssay AID330 (DTP/NCI, 2004)
Inconclusive results and toxic doses are left out. How the source made its calls: active means survival T/C of 150% or more; inactive means T/C below 125% in these data.

Test system: P388 leukemia ip, CD2F1 mice, survival T/C
Assay: NCI In Vivo Anticancer Drug Screen. Data for tumor model P388 Leukemia (intraperitoneal) in CD2F1 (CDF1) mice
Conditions: endpoint: median survival time, higher = longer survival
Method in brief: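 Mice carrying the transplanted tumor received test compound or vehicle. Survival was recorded in each group, and the value is the treated-group measurement divided by that of the vehicle-treated control group.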

[1] = dose: 50.0 mg/kg/injection, schedule: Q01DX009 (ip), vehicle: Klucel (hydroxypropylcellulose) (HPC)
[2] = dose: 100.0 mg/kg/injection, schedule: Q01DX009 (ip), vehicle: Klucel (hydroxypropylcellulose) (HPC)
[3] = dose: 200.0 mg/kg/injection, schedule: Q01DX009 (ip), vehicle: Klucel (hydroxypropylcellulose) (HPC)

Measured: T/C

CN(C)c1cccc2c(Cl)c(Cl)c3cccc(N(C)C)c3c12
inactive: dose: 60.0 mg/kg/injection, schedule: Q01DX005 (ip), vehicle: saline with Tween-80 98 % of control | dose: 120.0 mg/kg/injection, schedule: Q01DX005 (ip), vehicle: saline with Tween-80 100 % of control | dose: 240.0 mg/kg/injection, schedule: Q01DX005 (ip), vehicle: saline with Tween-80 99 % of control

O=[N+]([O-])c1cccc(C=Nc2ccc(/C=C/C3(CCl)OCCO3)cc2)c1
inactive: [1] 98 % of control | [2] 97 % of control | [3] 91 % of control

CC1=NCCN=C(C)C1N=Nc1ccc(S(=O)(=O)Nc2ncccn2)cc1
inactive: dose: 100.0 mg/kg/injection, schedule: Q04DX003 (ip), vehicle: saline with Tween-80 96 % of control | dose: 200.0 mg/kg/injection, schedule: Q04DX003 (ip), vehicle: saline with Tween-80 93 % of control | dose: 400.0 mg/kg/injection, schedule: Q04DX003 (ip), vehicle: saline with Tween-80 99 % of control

C[S+](C)CCCNC(=O)c1csc(-c2cscn2)n1
inactive: dose: 6.25 mg/kg/injection, schedule: Q01DX005 (ip), vehicle: water 101 % of control | dose: 12.5 mg/kg/injection, schedule: Q01DX005 (ip), vehicle: water 96 % of control | dose: 25.0 mg/kg/injection, schedule: Q01DX005 (ip), vehicle: water 101 % of control

CCCCCCCCCCC(=O)C(=O)c1ccc(O)cc1O
inactive: [1] 111 % of control | [2] 112 % of control | [3] 113 % of control

CCC(C)n1c(C)nc2ncn(-c3ccccc3)c2c1=O (stereo not drawn)
inactive: dose: 50.0 mg/kg/injection, schedule: Q01DX005 (ip), vehicle: Klucel (hydroxypropylcellulose) (HPC) 100 % of control | dose: 100.0 mg/kg/injection, schedule: Q01DX005 (ip), vehicle: Klucel (hydroxypropylcellulose) (HPC) 103 % of control | dose: 200.0 mg/kg/injection, schedule: Q01DX005 (ip), vehicle: Klucel (hydroxypropylcellulose) (HPC) 105 % of control
